In experiment [1] the test system is Staphylococcus aureus ATCC 6538. Put plainly: Determination of the minimum inhibition concentration (MIC value) in microtitre plates. It is filed as cell-based. To be noted: CASO broth, 37° C., 48 hours, optical density at 620 nm, MIC = <20% growth vs growth control. From the text:
(§1) Determination of the Minimum Inhibition Concentration (MIC Value) in Microtitre Plates Nutrient Medium: Casein-soy flour-peptone broth for the preparation of the precultures of the test bacteria and yeast. Examples of Test Microbes: Bacteria: Staphylococcus aureus ATCC 6538 • Escherichia coli NCTC 8196 (=EC) Procedure: The test substances are predissolved in dimethyl sulphoxide (DMSO) and tested in a dilution series of 1:2. The bacteria are cultivated overnight in CASO broth and sponged off with 10 ml of 0.85% sodium chloride solution (+0.1% TritonX-100). All of the test microbes are adjusted to a microbial count of 1-5×10^6 CFU/ml with 0.85% sodium chloride solution. The test substances are prepipetted at 8 μl per well into microtitre plates. Prediluted microbial suspensions are diluted 1:100 in CASO broth and added at 192 μl per well to the test substances. The test mixtures are incubated at 37° C. for 48 hours. After incubation, the growth is determined by reference to the clouding of the test mixtures (optical density) at 620 nm in a microplate reader. The minimum inhibition concentration (MIC value) is the concentration of substance at which (compared with the growth control) a significant growth inhibition (<20% growth) of the test microbes is established. One microtitre plate is prepared per test microbe and substance concentration. All of the substances are tested in duplicate.

Experiment [2] deals with Escherichia coli NCTC 8196. Described as above. It is filed as cell-based. Set-up: unit not given here. As to conditions: CASO broth, 37° C., 48 hours, optical density at 620 nm; MIC = <20% growth vs growth control.
Source text: as §1

≈ marks a conversion by molar mass, not a printed value.

As to `CCCCCCOc1ccc(CO)cc1` [(10)], the “MIC Staphylococcus aureus” value in experiment [1] is on record as 120 ppm. For the same molecule, the “MIC Escherichia coli” value in experiment [2] was 60.
`C[Si](C)(C)CCCOc1ccccc1CO` [(3)]: the “MIC Staphylococcus aureus” value in experiment [1] is on record as 60 ppm. Besides, the “MIC Escherichia coli” value in experiment [2] is listed as >120.
`CCC(CC)Oc1ccc(OC)cc1CO` [(22)]: in experiment [1], the “MIC Staphylococcus aureus” value amounted to 60 ppm. Further, the “MIC Escherichia coli” value in experiment [2] stood at 60.
Consider `CCCCCCOc1ccc(OC)cc1CO` [(20)], for which the “MIC Staphylococcus aureus” value in experiment [1] was found to be 60 ppm. Further, the “MIC Escherichia coli” value in experiment [2] was 60.
Consider `COc1ccc(OCCC[Si](C)(C)C)c(CO)c1` [(16)], for which the “MIC Staphylococcus aureus” value in experiment [1] turned out to be 15 ppm. The “MIC Escherichia coli” value in experiment [2] is >120.
As to `CCCCCCCCOc1ccccc1CO` [(5)], the “MIC Staphylococcus aureus” value in experiment [1] is listed as 60 ppm. In experiment [2], the “MIC Escherichia coli” value was >120.
With `COc1ccc(OC[Si](C)(C)C)c(CO)c1` [(17)], the “MIC Staphylococcus aureus” value in experiment [1] turned out to be 60 ppm. In addition, the “MIC Escherichia coli” value in experiment [2] was found to be 60.
For the molecule `CCCCCCCCOc1ccc(CO)cc1` [(11)], in experiment [1] (Staphylococcus aureus, ATCC6538), inhibition of growth (MIC) required 15 µg/mL (≈ 63.5 µM). Besides, in experiment [2], the “MIC Escherichia coli” value came to 15.
Take `COc1ccc(OCCOc2ccccc2)c(CO)c1` [(18)]: the “MIC Staphylococcus aureus” value in experiment [1] is 120 ppm. Besides, the “MIC Escherichia coli” value in experiment [2] worked out at 60.
Turning to `CCCCOc1ccc(OC)cc1CO` [(19)], the “MIC Staphylococcus aureus” value in experiment [1] amounted to 120 ppm. The “MIC Escherichia coli” value in experiment [2] came to 60.
With `CCCCCCCCOc1ccc(OC)cc1CO` [(21)], the “MIC Staphylococcus aureus” value in experiment [1] was found to be 30 ppm. Further, the “MIC Escherichia coli” value in experiment [2] was determined as 30.
With `CCCCCC(C)Oc1ccc(OC)cc1CO` (stereo not drawn) [(23)], the “MIC Staphylococcus aureus” value in experiment [1] stood at 60 ppm. Further, the “MIC Escherichia coli” value in experiment [2] was 60.
For `C=CC[Si](C)(C)COc1ccc(CO)cc1OC[Si](C)(C)CC=C` [(29)] the same measures were 120 ppm and >120.
For the molecule `CCCCCC(C)Oc1cccc(CO)c1` (stereo not drawn) [(15)], the “MIC Staphylococcus aureus” value in experiment [1] was 120 ppm. In addition, the “MIC Escherichia coli” value in experiment [2] turned out to be 120.
The like results for `CCCCCCCCCCCCOc1ccc(OCCCCCCCCCCCC)c(CO)c1` [(35)] were, in that order, 60 ppm and 120.
With `CCCCCCCCCCCCOc1ccc(CO)cc1OCCCCCCCCCCCC` [(31)], the “MIC Staphylococcus aureus” value in experiment [1] is 120 ppm. Moreover, the “MIC Escherichia coli” value in experiment [2] is listed as >120.
The like results for `CCCCCCCCOc1ccc(OCCCCCCCC)c(CO)c1` [(34)] were, in that order, 120 ppm and 60.
As for `CCCCCCCCCCCCOc1ccc(CO)c(OCCCCCCCCCCCC)c1` [(32)], in experiment [1], the “MIC Staphylococcus aureus” value was found to be 60 ppm. In addition, in experiment [2], the “MIC Escherichia coli” value is >120.
Take `CCCCCCCCOc1ccc(CO)cc1OC` [(28)]: the “MIC Staphylococcus aureus” value in experiment [1] stood at 30 ppm. In addition, in experiment [2], the “MIC Escherichia coli” value came out at 30.
Regarding `COc1ccc(OCc2ccccc2)c(CO)c1` [(25)], in experiment [1], the “MIC Staphylococcus aureus” value stood at 120 ppm. Also, the “MIC Escherichia coli” value in experiment [2] is 120.
The like results for `COc1ccc(OC2CCCCC2)c(CO)c1` [(24)] were, in that order, 60 ppm and 60.
`CCCCCCCCOc1cccc(CO)c1` [(14)]: the “MIC Staphylococcus aureus” value in experiment [1] is recorded as 15 ppm. Further, the “MIC Escherichia coli” value in experiment [2] was found to be 30.
`OCc1ccc(OC2CCCCC2)cc1OC1CCCCC1` [(33)]: the “MIC Staphylococcus aureus” value in experiment [1] is recorded as 15 ppm. For the same molecule, the “MIC Escherichia coli” value in experiment [2] is >120.
The like results for `CCCCCCCCOc1ccc(CO)cc1OCCCCCCCC` [(30)] were, in that order, 60 ppm and 60.
Regarding `C[Si](C)(C)CCCOc1cccc(CO)c1` [(12)], in experiment [1], the “MIC Staphylococcus aureus” value amounted to 60 ppm. Also, the “MIC Escherichia coli” value in experiment [2] is reported as 60.
For the molecule `CCCCCC(C)Oc1ccccc1CO` (stereo not drawn) [(7)], the “MIC Staphylococcus aureus” value in experiment [1] was determined as 120 ppm. Also, the “MIC Escherichia coli” value in experiment [2] is >120.
As to `C[Si](C)(C)CCCOc1ccc(CO)cc1` [(8)], the “MIC Staphylococcus aureus” value in experiment [1] stood at 60 ppm. In experiment [2], the “MIC Escherichia coli” value was determined as 60.
For `C[Si](C)(COc1cccc(CO)c1)c1ccccc1` [(13)], in experiment [1], the “MIC Staphylococcus aureus” value is given as 60 ppm. Besides, the “MIC Escherichia coli” value in experiment [2] is listed as >120.
For `COCCOCCOc1ccc(CO)cc1` [(9)], the “MIC Staphylococcus aureus” value in experiment [1] is reported as 30 ppm. Besides, the “MIC Escherichia coli” value in experiment [2] was 60.
Take `CCCCCCCCOc1c(CO)cccc1OC` [(27)]: in experiment [1], the “MIC Staphylococcus aureus” value was found to be 30 ppm. Further, the “MIC Escherichia coli” value in experiment [2] came out at 60.
The like results for `C[Si](C)(C)COc1ccccc1CO` [(4)] were, in that order, 120 ppm and >120.
Take `CCC(CC)Oc1ccccc1CO` [(6)]: the “MIC Staphylococcus aureus” value in experiment [1] was found to be 120 ppm. For the same molecule, in experiment [2], the “MIC Escherichia coli” value was >120.
As to `CCCCCCCCOc1cccc(OC)c1CO` [(26)], the “MIC Staphylococcus aureus” value in experiment [1] is listed as 15 ppm. Besides, the “MIC Escherichia coli” value in experiment [2] came to 15.

The values above are taken from US20050124579A1, “Benzyl alcohol derivatives” (priority 2002, published 2005).
